From patent publication US20240318142A1, “METHOD FOR PRODUCING RENAL INTERSTITIAL PROGENITOR CELLS, ERYTHROPOIETIN-PRODUCING CELLS, AND METHOD FOR PRODUCING RENIN-PRODUCING CELLS” (KYOTO UNIVERSITY, priority 2021, published 2024) come the findings set out here.

Assay [1] deals with hiPSC-derived IPCs. Put plainly: qRT-PCR of EPO after further differentiation induction from IPCs (renal EPO-producing cells). Conditions: for EPO expression compared to the combination of SB431542 and SAG: combination of A83-01 and SAG in CFR medium, FIG. 10; for effect on the SAG-induced EPO up-regulation: modulator together with SAG 500 nM, CHIR99021, RA, and A83-01; for effect on the SAG-induced EPO up-regulation / EPO expression: FIG. 15; for EPO expression: SHH signal modulators under induction conditions using CHIR99021, RA, and A83-01, Days 11 to 14. In kind it is cell-based, human. Here is the method:
(§1) FIG. 9 is a diagram illustrating results of qRT-PCR analysis of EPO and renin carried out on Days 11 to 14, that is, after obtaining renal interstitial progenitor cells, for comparison of the effects of combinations of candidate differentiation induction factors for renal EPO-producing cells or renin-producing cells. The SAG concentration was 500 nM, and the concentrations of SB and CHIR are expressed in the unit of μM.
(§2) FIG. 10 is a diagram illustrating results of qRT-PCR analysis of EPO and renin on Days 11 to 14, that is, after obtaining renal interstitial progenitor cells, for comparison of the effects of combinations of various candidate differentiation induction factors. The SAG concentration was 500 nM; the concentrations of SB and A83 are expressed in the unit of μM; LDN is expressed in the unit of nM; and TGFβ1, BMP7, and activin (ACT) are expressed in the unit of ng/mL.
FIG. 15 is a diagram illustrating results of qRT-PCR analysis of EPO carried out on Days 11 to 14, that is, after obtaining renal interstitial progenitor cells, for comparison of the effects of various Sonic Hedgehog (SHH) signal modulators under induction conditions using CHIR99021, RA, and A83-01. So, Vi, Pu, Sa, and Ga represent sonidegib, vismodegib, purmophamine, SANT-1, and GANT61, respectively, and their concentrations are expressed in the unit of μM. The concentration of SAG was 500 nM, and the concentration of SHH was 100 ng/mL.
(§3) First, using the IPCs on Day 11, culture was performed under 5% O2 hypoxic conditions in the presence of FG-4592 (N-[(4-hydroxy-1-methyl-7-phenoxy-3-isoquinolinyl)carbonyl]-glycine) and RA with addition of various factors. By measuring the expression of EPO and renin, screening for induction factors for renin-producing cells and renal EPO-producing cells was carried out.
Subsequently, the effects of various SHH signal modulators in a system for differentiation induction from IPCs to EPO-producing cells were investigated (FIG. 15). Several SMO antagonists (sonidegib, vismodegib, and SANT-1) and agonists (SAG and purmophamine), a GLI1 inhibitor (GANT61), and human SHH protein were tested.

Assay [2] deals with PPS cells obtained by differentiation induction from human iPS cells. Briefly: Induction of FOXD1-positive renal interstitial progenitor cells (IPC) from PPS cells, flow cytometric analysis (FOXD1 and OSR1) on Day 11. The assay is classed as cell-based. Conditions: for induction efficiency for OSR1-positive FOXD1-positive cells: addition of IL-1β (10 ng/mL) and SAG (500 nM) together on Days 6 to 8, FIG. 6. The method, then:
FIG. 3 is a diagram illustrating results of flow cytometric analysis (FOXD1 and OSR1), carried out on Day 11, of cells that were treated with various combinations of factors during the differentiation induction period of Days 6 to 11 (the period corresponding to “Screening” in FIG. 1). The following concentrations were employed: 1 μM CHIR99021 (CHIR), 10 μM SB431542 (SB), 100 nM retinoic acid (RA), 200 ng/mL FGF9, and 25 ng/mL Noggin.
FIG. 5 is a diagram illustrating results of flow cytometric analysis (FOXD1 and OSR1), carried out on Day 11, of cells that were treated or not treated with Smoothened Agonist (SAG) (concentration, 500 nM) during the differentiation induction period of Days 6 to 8. ** indicates p<0.01 (Student's t-test), and NS indicates “no significant difference”.
FIG. 6 is a diagram illustrating results of flow cytometric analysis (FOXD1 and OSR1), carried out on Day 11, of cells that were treated with various factors during the differentiation induction period of Days 6 to 8. The following concentrations were employed: 1 μM CHIR, 10% Wnt3a, 200 ng/mLRSPO1 (R-Spondin-1), 500 nM SAG, 10 ng/mL IL-1β, 50 ng/mL Estradiol, and 10 ng/mL TGFβ1.
Human iPS cells (hiPSCs) (17K6:OSR1-GFP/FOXD1-tdTomato double knock-in hiPSCs) were first subjected to enzyme treatment for 5 minutes using a 1:1 mixture of TrypLE Select Enzyme (Thermo Fisher Scientific) and 0.5 mM EDTA/PBS, and then washed with PBS(−). Thereafter, the cells were detached using a cell scraper, and then dissociated into single cells by gentle pipetting. One day before the start of differentiation, the cells were plated into a 24-well plate (CORNING) at a density of 1.3×10^4 cells/cm^2 together with 0.5 mL of Stem Fit AK02N (Ajinomoto Healthy Supply Co., Inc.) supplemented with 10 μM Y-27632 and 2.4 μL/mL iMatrix-511 (Matrixome). Twenty-four hours later (Day 0), 5 μM CHIR99021 (Wako), 10 nM RA (Sigma), 1 ng/mL BMP4 (Peprotech), and 100 ng/mL bFGF (Wako) were added to a serum-free differentiation medium comprising DMEM/F12 Glutamax (Thermo Fisher Scientific), B27 supplement minus vitamin A (Thermo Fisher Scientific), and 0.5× penicillin/streptomycin (hereinafter referred to as basal medium), and then culture was started. Twenty-four hours thereafter (Day 1), culture was performed with a basal medium supplemented with 5 μM CHIR99021, 100 ng/mL bFGF, and 1 ng/mL BMP7 (R&D Systems). On Day 2, the medium was switched to a basal medium supplemented with 5 μM CHIR99021, 1 ng/mL BMP7, and 10 μM A83-01 (Wako). On Day 3, the medium was switched to a basal medium supplemented with 5 μM CHIR99021, 30 ng/mL bFGF, 10 ng/mL activin A (R&D Systems), and 30 μM Y-27632 (Wako). On Day 4, the cells were washed with PBS(−), treated with Accumax (Innovative Cell Technologies), and then dissociated into single cells by gentle pipetting, followed by plating into a 24-well plate (CORNING) at a density of 1.05×10^5 cells/cm^2 (2D culture) or plating into a 96-well low-cell-adhesive plate (Thermo Fisher Scientific) at a density of 2.0×10^4 cells/cm^2 (3D culture). Culture was performed for 48 hours using a basal medium supplemented with 5 μM CHIR99021, 30 ng/mL bFGF, 10 ng/mL activin A, and 30 μM Y-27632 (in addition, 1.2 μL/well iMatrix-511 or a laminin-E8 fragment library in the case of 2D culture). By this, HOXC10- and CITED1-positive PPS cells were induced.
For the PPS cells on Day 6 of the culture protocol in FIG. 1, several differentiation induction conditions were tested by combining various factors. […]
In general terms: In flow cytometry, cells or beads pass a laser one at a time.

The subject of assay [3] is hiPSC-derived IPCs. Briefly: qRT-PCR of renin and mesangial/JG cell markers after further differentiation induction from IPCs (renin-producing cells). In kind it is cell-based, human. The method, then: as §1, §2
FIG. 11 is a diagram illustrating results of qRT-PCR analysis of renin on Days 11 to 14, that is, after obtaining renal interstitial progenitor cells, for comparison of the effects of various factors. In the presence of CHIR99021, RA, and FG-4592 (CFR), the effects of BMP4, BMP5, and BMP7 (10 ng/mL or 100 ng/mL) were investigated under conditions with or without treatment by SB431542 (1 μM). SB is expressed in the unit of […], and TGFβ1 and ACT are expressed in the unit of ng/mL.
FIG. 12 is a diagram illustrating results of qRT-PCR analysis of marker expression for the mesangial cell lineage (GATA3, renin, and GJA5) and IPCs (FOXD1) at Hour 0 and Hour 96 after treatment with CFR+BMP7+SB. iPSC represents the control.
FIG. 13 is a diagram illustrating results of qRT-PCR analysis of cells that were subjected to treatment under hypoxic (CFR+B7+SB in 5% O2) or normal oxygen (CFR+B7+SB minus FG-4592 in 20% O2) conditions on Days 11 to 15, that is, after obtaining renal interstitial progenitor cells, which analysis was carried out for markers for JG (renin and GJA4) and mesangial cells (EBF1, GJA5, ITGA8, and GATA3). * indicates p<0.05; ** indicates p<0.01; and NS indicates “no significant difference” (Student's t-test).
FIG. 14 is a diagram illustrating results of qRT-PCR analysis of cells that were subjected to treatment with VEGF (100 ng/mL) or axitinib (3 μM) and also to treatment under hypoxic conditions (CFR+B7+SB in 5% O2) or normal conditions (CFR+B7+SB minus FG-4592 in 20% O2) on Days 11 to 15, that is, after obtaining renal interstitial progenitor cells, which analysis was carried out for markers for JG (renin and GJA4), mesangial cells (EBF1, GJA5, ITGA8, and GATA3), and VEGFA.
as §3
Background: Quantitative PCR measures a nucleic acid by following its amplification.

[4] abbreviates: BMP (10 or 100 ng/mL) added to CFR medium in the presence of SB431542 (1 μM), FIG. 11.

Turning to `Cc1cccc(-c2nn(C(=S)Nc3ccccc3)cc2-c2ccnc3ccccc23)n1` [A83-01], the “EPO expression compared to the combination of SB431542 and SAG” value in assay [1] is “higher EPO expression”. In the case of `Cc1c[nH]c(-c2cnc(NCCNc3ccc(C#N)cn3)nc2-c2ccc(Cl)cc2Cl)n1` [CHIR99021], the “induction of FOXD1-positive cells” value in assay [2] (5 days of treatment (Days 6 to 11) with the combination CHIR99021 1 μM, SB431542 10 μM and RA 100 nM, FIG. 3) is given as “could be induced”. Besides, in assay [3] (combination of CHIR99021 and SB431542, absence of SAG, 5% O2, FG-4592 and RA present, FIG. 9), the expression of renin result is “increase the expression of renin”. In the case of VEGF, in assay [3] (VEGF 100 ng/mL added to CFR+B7+SB, Days 11 to 15, FIG. 14), the “expression of markers for juxtaglomerular (JG) cells and mesangial cells” value was “increases”.

On to `CS(=O)(=O)c1ccc(C(=O)Nc2ccc(Cl)c(-c3ccccn3)c2)c(Cl)c1` [vismodegib], for which, in assay [1], the “effect on the SAG-induced EPO up-regulation” value (shortened to “effect”) is recorded as “reduced the effect of SAG”. On to `CNC1CCC(N(Cc2cccc(-c3ccncc3)c2)C(=O)c2sc3ccccc3c2Cl)CC1` (stereo not shown) [SAG], for which, in assay [1], the EPO expression result is on record as “up-regulation of EPO”; the “EPO expression compared to the combination of SB431542 and SAG” value was “higher EPO expression”. Besides, the “expression of EPO” value in assay [1] (combination of SB431542 and SAG (500 nM), 5% O2, FG-4592 and RA present, FIG. 9) is “increase the expression of EPO”. In assay [2] (SAG 500 nM added on Days 6 to 8 to CHIR99021+SB431542+RA, FIG. 5), the “induction efficiency for FOXD1-positive cells” value was “further increased”. The “induction efficiency for OSR1-positive FOXD1-positive cells” value in assay [2] was “increases”. In the case of `CN(C)c1ccccc1CN1CCCN(Cc2ccccc2N(C)C)C1c1ccncc1` [GANT61], the “effect” value in assay [1] is “did not reduce the effect of SAG”.

“IL-1β: interleukin-1β, preferably human IL-1β protein”: the “induction efficiency for OSR1-positive FOXD1-positive cells” value in assay [2] is “increases”.

Turning to `Cc1nn(-c2ccccc2)c(C)c1/C=N/N1CCN(Cc2ccccc2)CC1` [SANT-1], the “effect” value in assay [1] is listed as “reduced the effect of SAG”.

Take `c1ccc2c(Oc3nc(Nc4ccc(N5CCOCC5)cc4)c4ncn(C5CCCCC5)c4n3)cccc2c1` [purmophamine, 9-cyclohexyl-N-[4-(4-morpholinyl)phenyl]-2-(1-naphthalenyloxy)-9H-purine-6-amine]: in assay [1], the EPO expression entry is “up-regulation of EPO”. `Cc1c(C(=O)Nc2ccc(N3C[C@@H](C)O[C@@H](C)C3)nc2)cccc1-c1ccc(OC(F)(F)F)cc1` [sonidegib]: the “effect” value in assay [1] is recorded as “reduced the effect of SAG”.

B1: BMP4: bone morphogenetic protein 4 (protein, UniProt P12644 293-408, looked up)
Bone morphogenetic protein 4: SPKHHSQRARKKNKNCRRHSLYVDFSDVGWNDWIVAPPGYQAFYCHGDCPFPLADHLNSTNHAIVQTLVNSVNSSIPKACCVPTELSAISMLYLDEYDKVVLKNYQEMVVEGCGCR
On to B1, for which, in assay [3] (setting [4]), the expression of renin result is listed as “high expression of renin”.

B2: BMP7: bone morphogenetic protein 7 (protein, UniProt P18075 293-431, looked up)
Bone morphogenetic protein 7: STGSKQRSQNRSKTPKNQEALRMANVAENSSSDQRQACKKHELYVSFRDLGWQDWIIAPEGYAAYYCEGECAFPLNSYMNATNHAIVQTLVHFINPETVPKPCCAPTQLNAISVLYFDDSSNVILKKYRNMVVRACGCH
Take B2: the expression of renin entry in assay [3] (setting [4]) is “high expression of renin”; in assay [3] (added to CFR medium (CHIR99021, FG-4592, RA), absence of SAG, FIG. 10) it was “positively affected”.

B3: BMP5: bone morphogenetic protein 5 (protein, UniProt P22003 317-454, looked up)
Bone morphogenetic protein 5: AANKRKNQNRNKSSSHQDSSRMSSVGDYNTSEQKQACKKHELYVSFRDLGWQDWIIAPEGYAAFYCDGECSFPLNAHMNATNHAIVQTLVHLMFPDHVPKPCCAPTKLNAISVLYFDDSSNVILKKYRNMVVRSCGCH
In the case of B3, in assay [3] (setting [4]), the expression of renin entry was “high expression of renin”.
